From publication PMC10865860 (mBio, 2023)

System: SARS-CoV-2 Omicron subvariant XBB.1.16
Set-up: species or system K18-hACE2 mice
Details: mouse, in vivo

## COc1ccccc1C1CC1COC(=O)NC(CC(C)C)C(=O)NC(CC1CCNC1=O)C(O)S(=O)(=O)O (stereo not shown) [11d]
  body weight loss compared to vehicle: reduced weight losses
  lung edema average score: < 0.5
  viral titers in nasal wash, nasal turbinate, and lungs compared to vehicle: significantly lower
ip
  fatality by 14 days after virus infection: 20%
